Measurements reported in US20050261221A1, “Compositions and methods for enhanced delivery of compounds via transfection complexes” (priority 2004, published 2005).
Values joined by “and” are separate entries in the source; they are usually repeats but may differ in a detail not shown here. Equal values may be shown once. “Also recorded” adds a separate entry of the source.

What was measured:
[1] = test system: vascular smooth muscle cells (VSMCs); assay: Transfection of VSMCs with cationic phospholipid (EDOPC)-DNA complexes, β-galactosidase microplate fluorometric assay; type: cell-based, Wistar rats; conditions: for Effect on transfection: 0.001-0.5 μM cytochalasin B for 3 h, then DNA-lipid complexes 3 h
Method: Primary vascular smooth muscle cells were obtained by removal of the thoracoabdominal aortas of Wistar rats, which were then stripped of endothelium and adventitia. Medial VSMCs were maintained in Dubecco's Modified Eagle's Medium (DMEM), 20% fetal bovine serum (FBS), 200 units/ml penicillin, 200 μg/ml streptomycin (all Gibco, Gaitherburg, Md.) at 37° C. with 5% CO2. At confluence, the cells were passaged using 0.25 mg/ml Trypsin/EDTA (Clonetics, Walkersville, Md.) and were used at passage 3-10 for these experiments.
The cells were seeded in 96-well plates at 24 h before transfection at densities to give about 80% confluence at the time of transfection. Normally, EDOPC was suspended in D-PBS at 1 mg/ml to form liposomes. Liposomes and plasmid DNA were diluted in serum-free cell culture medium to 60 μg/ml for lipid and to 20 μg/ml for DNA, and liposomes were pipetted into an equal volume of plasmid DNA solution at a 3:1 weight ratio and mixed gently. The resultant DNA-lipid complexes were incubated at room temperature for 15 min and then added to the cells that were either in medium lacking serum or medium containing 20% fetal bovine serum (FBS). At 3 h after addition of DNA-lipid complexes, except as stated otherwise, the cells were washed with PBS and fresh medium containing 20% FBS was added. Generally, the cells were incubated with free drugs in 20% FBS DMEM for the indicated duration, and then, unless otherwise described, the cells were washed with PBS and incubated with DNA-lipid complexes. For experiments involving co-treatment with taxol and colchicine, the cells were first incubated with taxol for 30 min and then colchicine was added to the medium. […] Subsequent steps were same as for the normal lipoplexes.
Cells were assayed for β-galactosidase activity 24 h after transfection with a microplate fluorometric assay, modified by inclusion of a heating step (50° C., 45 min) to inactivate endogenous enzyme activity. Following aspiration of the medium from each well, the cells were washed once with PBS and then lysed by addition of 100 μl lysis buffer (0.03% Triton X-100 in 100 mM HEPES, pH 7.8, containing 1 mM MgSO4, 10 mM KCl). The plates were placed at 50° C. for 45 min and then allowed to cool to room temperature. 10 μl 100 μM FDG (fluorescein di-β-D-galactopyranoside) was added into each well. Fluorescence was measured with a microplate fluorimeter (Model 7620, Cambridge Technology Inc.) after incubation at 37° C. for 3 h. Fluorescence intensity is proportional to β-galactosidase expression; 2000 fluorescence units corresponded approximately to 0.1 milliunit of β-galactosidase. The expression of VSMCs transfected with normal lipoplexes in absence of serum and any pretreatment was ˜0.1 milliunit per well.

[2] = test system: nerve growth factor (NGF) mRNA; conditions: reported [39]; cited from earlier work
[3] = cited from earlier work
[4] = 100 μM TLCK in fresh 20% FBS after 3 h lipoplex treatment

With `COC(=O)Nc1nc2ccc(C(=O)c3cccs3)cc2[nH]1` [Nocodazole, nocodazole] the “Fold increase of transfection means ± S.D.” value ([1]; optimal conditions: 50 μM free drug, 3 h pretreatment, 20% FBS) was 14 ± 2.0 fold, the “Fold increase of transfection means ± S.D.” value ([1]; optimal conditions: 50 μM free drug, 3 h pretreatment, 20% FBS, listed as nocodazole) was 14 fold and the “Fold increase of transfection means ± S.D.” value ([1]; optimal conditions: 50 μM free drug, 3 h pretreatment, No serum) was 31 ± 5.0 fold. For the same molecule, the “Fold increase of transfection means ± S.D.” value ([1]; optimal conditions: 50 μM free drug, 3 h pretreatment, No serum, listed as nocodazole) was 31 fold and the “Effect on the level of NGF mRNA” value [2] was “increase”.
With `S=C(S)N1CCCC1` [PDTC, pyrrolidinedithiocarbamate] the inhibition at 10 µM ([1]; Rattus norvegicus, VSMC, read-out: Reduction of transfection with VB-lipoplexes (inhibition of vinblastine stimulation), 10 μM PDTC in fresh 20% FBS after 3 h lipoplex treatment) was 85% and the “Transfection stimulation by VB-lipoplexes” value ([1]; after treatment with 10 μM PDTC) was 5 ×.
With `Cc1ccc(S(=O)(=O)N[C@@H](CCCCN)C(=O)CCl)cc1` [TLCK, Nα-p-tosyl-L-lysine chloromethyl ketone] the “Decrease of transfection of VB-lipoplexes (inhibition of vinblastine stimulation)” value [1, 4] was 66% and the “Decrease of transfection of normal lipoplexes” value [1, 4] was 50%.
In the case of `CC[C@]1(O)C[C@H]2CN(CCc3c([nH]c4ccccc34)[C@@](C(=O)OC)(c3cc4c(cc3OC)N(C=O)[C@H]3[C@@](O)(C(=O)OC)[C@H](OC(C)=O)[C@]5(CC)C=CCN6CC[C@]43[C@@H]65)C2)C1` [Vincristine, vincristine], the “Fold increase of transfection means ± S.D.” value ([1]; optimal conditions: 1/50 (w/w) VC/lipid incorporated in lipid, 20% FBS during 3 h incubation with complexes) is reported as 39 ± 6.9 fold, the “Fold increase of transfection means ± S.D.” value ([1]; optimal conditions: 1/50 (w/w) VC/lipid incorporated in lipid, 20% FBS during 3 h incubation with complexes, listed as vincristine) is reported as 39 fold and the “Fold increase of transfection means ± S.D.” value ([1]; optimal conditions: 1/50 (w/w) VC/lipid incorporated in lipid, No serum during 3 h incubation with complexes) is reported as 25 ± 5.7 fold. The “Fold increase of transfection means ± S.D.” value ([1]; optimal conditions: 1/50 (w/w) VC/lipid incorporated in lipid, No serum during 3 h incubation with complexes, listed as vincristine) was 25 fold.
For `COc1cc2c(c(OC)c1OC)-c1ccc(OC)c(=O)cc1[C@@H](NC(C)=O)CC2` [colchicine, Colchicine], the “Effect on transfection when added to cells simultaneously with lipoplexes” value ([1]; 0.05 μg/ml colchicine, simultaneous with lipoplexes, absence of serum) was “increased marginally”, the “Effect on expression when added to cells simultaneously with lipoplexes” value ([1]; free colchicine added simultaneously with lipoplexes) was “not noticeably stimulated; also recorded: no stimulation” and the “Fold increase of transfection (β-galactosidase expression)” value ([1]; pretreatment with 8 μg/ml free colchicine 3 h, 20% FBS) was ~23 fold and 24 fold. For the same molecule, the “Fold increase of transfection (β-galactosidase expression)” value ([1]; pretreatment with 8.0 μg/ml free colchicine 3 h, absence of serum) was roughly 23 fold and the “Effect on the level of NGF mRNA” value [2] was “increase”.
In the case of `C=C1[C@@H](C)[C@H]2[C@H](Cc3ccccc3)NC(=O)[C@]23OC(=O)/C=C/[C@H](O)CCC[C@@H](C)C/C=C/[C@H]3[C@@H]1O` [cytochalasin B], the Effect on transfection [1] is given as “No effect”, the Effect on transfection ([1]; listed as Cytochalasin B) is given as “no effect” and the “Effect on the level of NGF mRNA” value [2] is given as “does not increase”.
For `CC[C@@]1([C@@H]2O[C@@H]([C@H]3O[C@@](O)(CO)[C@H](C)C[C@@H]3C)C[C@@H]2C)CC[C@H]([C@]2(C)CC[C@]3(C[C@H](O)[C@@H](C)[C@@H]([C@@H](C)[C@@H](OC)[C@H](C)C(=O)O)O3)O2)O1` [monensin], the “Fold effect on transfection relative to no pretreatment” value ([1]; 1 μM monensin for 15 min, then normal DNA-lipid complexes (FIG. 6)) was 9.5 fold.
With `COc1cc([C@@H]2c3cc4c(cc3[C@H](O)[C@H]3COC(=O)[C@H]23)OCO4)cc(OC)c1OC` [podophyllotoxin] the “Fold increase of transfection means ± S.D.” value ([1]; optimal conditions: 20 μM free drug, 3 h pretreatment, 20% FBS) was 14 fold and 14 ± 5.8 fold and the “Fold increase of transfection means ± S.D.” value ([1]; optimal conditions: 20 μM free drug, 3 h pretreatment, No serum) was 26 fold and 26 ± 4.5 fold.
With `CC(=O)O[C@H]1C(=O)[C@@]2(C)[C@H]([C@H](OC(=O)c3ccccc3)[C@]3(O)C[C@H](OC(=O)[C@H](O)[C@@H](NC(=O)c4ccccc4)c4ccccc4)C(C)=C1C3(C)C)[C@]1(OC(C)=O)CO[C@@H]1C[C@@H]2O` [taxol] the “Effect on the stimulation of transfection by colchicine” value ([1]; 4 μM taxol 30 min, then 0.8 μg/ml colchicine added) was “blocked”, the “Effect on transfection efficiency, taxol alone” value ([1]; pretreatment with 4 μM taxol 3 h) was “no effect” and the “Effect on the stimulation of VB-lipoplexes” value ([1]; pretreatment with taxol) was “blocked”. The “Effect on colchicine's increase of NGF mRNA” value [2] was “suppresses”.
In the case of `CC[C@]1(O)C[C@@H]2CN(CCc3c([nH]c4ccccc34)[C@@](C(=O)OC)(c3cc4c(cc3OC)N(C)[C@H]3[C@@](O)(C(=O)OC)[C@H](OC(C)=O)[C@]5(CC)C=CCN6CC[C@]43[C@@H]65)C2)C1` [vinblastine], the “Stimulation of transfection of SMGA-β-Gal plasmid (smooth muscle γ-actin gene promoter)” value ([1]; CMV-IEP-β-Gal replaced with SMGA-β-Gal, preliminary result) is given as “not stimulated”, the “Maximal stimulation of transgene expression” value ([1]; vinblastine incorporated into the lipoplexes) is given as roughly 30 fold and the Solubility in chloroform ([3]; chloroform) is given as “soluble”. The Solubility in water ([3]; water) was “essentially insoluble” and the “Effect on the level of NGF mRNA” value [2] was “increase”.
